Where “and” joins values, the source holds several entries; their conditions need not be identical. Identical values can stand only once. Like-named read-outs stand apart in the source and are kept apart here.
What was measured:
[1] = system: cytochrome P (CYP) enzymes; parameters: method as in earlier work; settings: cited from earlier work
[2] = cited from earlier work
[3] = Population pharmacokinetic (popPK) model of plasma concentrations in adult patients (OpTAT study)
From the text: Data were collected during the OpTAT study. […] Blood samples were collected from patients during their regular medical visits, with a maximum of eight samples taken per patient.
The digital monitor allowed us to provide accurate information on treatment implementation (i.e., the extent to which the patient’s dosing history is in line with the prescription—the correct dosing regimen, at the correct time and in the right condition) and temporary or long-term discontinuation of treatment (i.e., when the patient stops taking the treatment prematurely). For the remaining patients, dosing history was reconstructed based on information from the medical consultation notes, assuming steady-state condition if no information was available. Patient demographic and clinical data were extracted from medical records. For all clinical and laboratory data (e.g., body weight, hepatic or renal function), the closest measurement to the blood sample was used. If no measurement was taken within 10 days before or after the sample, then it was considered a missing value. Creatinine clearance (CrCL) was estimated using the Cockcroft–Gault formula [43]. Fat-free mass (FFM) was calculated using the following formula [44]:(1) FFMkg=BW×1−BFPbmi/100 with BW denoting bodyweight in kg and BFPbmi denoting body fat percentage, calculated using the following formula:(2) BFPbmi%=1.20×BMI+0.23×AGE−10.8×SEX−5.4 with BMI representing body mass index, in kg/m^2. SEX = 0 if women and 1 if men and AGE is provided in years.
The development of the population pharmacokinetic (popPK) model was performed using nonlinear mixed-effect modelling (Nonmem, ICON, Dublin, Ireland, version 7.4.3) and Pearl speaks Nonmem (PsN, version 4.8.0). Pirana (Certara, Radnor, PA, USA, version 2.9.6) was used for the management of runs, R (version 4.0.2), for graphical and statistical analyses.
A classical stepwise procedure was used to build the model. […] Inter-individual variability (IIV) was successively incorporated into each PK parameter. Different error models, including additive, proportional, and combined error models, were also assessed. Different values retrieved from the literature of absorption rate constants (ka), ranging from 0.4 to 2 h^−1, were evaluated due to insufficient data being collected during the absorption phase. For each patient, the time required to reach maximum concentration (Tmax) was estimated.
Biologically relevant covariates were introduced into the model through a forward/backward insertion/deletion method. Covariates tested were sex, body weight, body mass index (BMI), body surface area (BSA), age, FFM, CrCL, urea, total bilirubin, alkaline phosphatase (PAL), aspartate aminotransferase (ASAT), alanine aminotransferase (ALAT), concomitant administration of dabrafenib, and food intake. Initially, a univariate analysis was conducted, during which covariates were added one by one to the model. Continuous covariates were centred and normalized to the population median and were added to the model using either linear or allometric relationships, while categorical covariates followed a linear relationship. Missing values were assigned the population median. Subsequently, a multivariate analysis was performed of the identified significant covariates to develop the comprehensive model. Finally, a reductive analysis was performed to retain only the most significant covariates.
The assumption of steady state for patients without adherence information may have biased the analysis by interpreting low levels as high clearances resulting from missed doses rather than from a covariate effect. To verify this, a sensitivity analysis was conducted of the 11 patients with full adherence information. We assumed that if the significant covariate–parameter relationship persisted, its influence on the pharmacokinetic parameter would be confirmed, whereas, if not, this influence might have been confounded by other factors, including suboptimal adherence.

[4] = cited from earlier work; remark: listed apart in the source
[5] = Figure 1; cited from earlier work
[6] = parameters: method as in PMID 32283865; settings: fixed to a literature value; cited from earlier work
[7] = cited from earlier work; remark: listed apart in the source
[8] = bootstrap performed on 2000 runs

## CC(=O)Nc1cccc(-n2c(=O)n(C3CC3)c(=O)c3c(Nc4ccc(I)cc4F)n(C)c(=O)c(C)c32)c1 [trametinib]
[1]
  substrate of cytochrome P (CYP) enzymes: not a substrate
[2]
  lipophilicity (in words): lipophilic
[3]; 80-year-old versus 30-year-old patient
  decrease in CL: 40%
[3]; FFM of 68 kg compared with population median of 46.35 kg
  increase in CL: 66%
[3]; base two-compartment model
  IIV (CV%) on CL, base model: 45%
  central volume (V2), base model: 102 L
  intercompartmental clearance (Q), base model: 35.1 L/h
  peripheral volume (V3), base model: 338 L
[3]; [8]
  IIVCL, Bootstrap Median (95% PI): 22 (13, 28) %
  Q, Bootstrap Median (95% PI): 28.83 (12.69, 60.68) L·h^−1
  V2, Bootstrap Median (95% PI): 101.84 (65.42, 143.40) L
  V3, Bootstrap Median (95% PI): 286.48 (104.63, 385.40) L
  θAGE, Bootstrap Median (95% PI): −0.66 (−1.25 to −0.20)
  θCL, Bootstrap Median (95% PI): 3.98 (3.52, 4.45) L·h^−1
  θFFM, Bootstrap Median (95% PI): 1.41 (0.92, 1.90)
  σprop, Bootstrap Median (95% PI): 20 (16, 24) %
[3]; both, human, in vivo
  Tmax, median (min, max) estimated per patient: 1.7 h
[3]; both, human, in vivo, Tmax, median (min, max) estimated per patient
  Tmax: 1.75 h
[3]; both, human, plasma, oral
  clearance: 70 mL/min
[3]; covariate age
  CL variability explained by age: 21%
[3]; covariate analysis, RSE = 46%, effect excluded after sensitivity analysis (adherence confounding)
  increase in CL with coadministration of dabrafenib: 40%
[3]; covariate fat-free mass
  CL variability explained by FFM: 66%
[3]; final model
  IIVCL (inter-individual variability of CL, CV), Final Model Estimation (RSE %): 23 (14) %
  Q (typical intercompartmental clearance), Final Model Estimation (RSE %): 29.4 (30) L·h^−1
  V2 (typical volume of distribution, central), Final Model Estimation (RSE %): 108 L and 108 (16) L
  V3 (peripheral volume of distribution), Final Model Estimation (RSE %): 286 L and 286 (25) L
  θCL (typical clearance), Final Model Estimation (RSE %): 3.96 L·h^−1 and 3.96 (6) L·h^−1
  σprop (proportional residual error, CV), Final Model Estimation (RSE %): 20 (10) %
[3]; final model, AGEmedian = 63 years
  θAGE (effect of age on CL), Final Model Estimation (RSE %): −0.69 (32)
[3]; final model, FFMmedian = 46.35 kg
  θFFM (effect of fat-free mass on CL), Final Model Estimation (RSE %): 1.41 (17)
[4]
  CL in a previous popPK model (first value named): 5.83 L/h
  CL in a previous popPK model (second value named): 4.91 L/h
[4]; ref Balakirouchenane et al. [38]
  peripheral volume of distribution: 417 L
[4]; ref Ouellet et al. [37]
  central volume of distribution: 214 L
  peripheral volume of distribution: 568 L
[5]
  Most frequent adverse events: Abdominal pain: 17%
  Most frequent adverse events: Arthralgia: 26%
  Most frequent adverse events: Asthenia: 15%
  Most frequent adverse events: Chills: 33%
  Most frequent adverse events: Constipation: 13%
  Most frequent adverse events: Coughing: 20%
  Most frequent adverse events: Cutaneous dryness: 13%
  Most frequent adverse events: Diarrhea: 32%
  Most frequent adverse events: Erythema: 10%
  Most frequent adverse events: Fatigue: 38%
  Most frequent adverse events: Flu infection: 11%
  Most frequent adverse events: Haemorrhages: 19%
  Most frequent adverse events: Headache: 33%
  Most frequent adverse events: Hypertension: 19%
  Most frequent adverse events: Increase in ALAT: 14%
  Most frequent adverse events: Increase in ASAT: 13%
  Most frequent adverse events: Loss of appetite: 14%
  Most frequent adverse events: Muscle cramps: 10%
  Most frequent adverse events: Myalgia: 15%
  Most frequent adverse events: Nausea: 38%
  Most frequent adverse events: Pain in the extremities: 12%
  Most frequent adverse events: Peripheral oedema: 16%
  Most frequent adverse events: Pruritus: 10%
  Most frequent adverse events: Pyrexia: 58%
  Most frequent adverse events: Rash: 24%
  Most frequent adverse events: Rhinopharyngitis: 11%
  Most frequent adverse events: Vomiting: 29%
  Most frequent adverse events: dizziness: 11%
[6]
  ka (absorption rate constant): 0.913 h^−1 and 0.913 fixed h^−1
[7]; Figure 1
  Steady-state at day: 15 days
[7]
  excreted in the urine: 19%
  terminal half-life: around 127 h
  time at which maximum concentration is reached after administration: approximately 1.5 h
[7]; listed as Trametinib
  excreted in the urine: ≤ 19%
[7]; oral
  bioavailability: 72%
